Assay results reported in US20140228279A1, “CATIONIC PEPTIDOPOLYSACCHARIDES WITH EXCELLENT BROAD- SPECTRUM ANTIMICROBIAL ACTIVITIES AND HIGH SELECTIVITY” (priority 2011, published 2014).
Converted amounts (≈) assume the structure as drawn. “Also recorded” adds a separate entry of the source. Read-outs that look alike come from different tables or passages of the source.

What was measured:
[1] = tested on: Candida albicans (ATCC10231); assay: Minimal inhibitory concentration (MIC), twofold broth dilution; format: cell-based; conditions: fungi; lowest concentration inhibiting growth by more than 90%
Protocol: (§1) Bacteria cells were grown overnight at 37° C. in MH broth to a mid-log phase and diluted to 10^4 to 10^5 CFU ml^−1. A twofold dilution series of 100 μl product solution in MH broth (YM broth for the fungi C. albicans and F. solani) was made on 96-well microplate, followed by the addition of 100 μl bacterial suspension (10^4 to 10^5 CFU mL^−1). The plates were incubated at 37° C. for 18-24 h (28° C., 36-48 h for fungi), and the absorbance at 600 nm was measured with a microplate reader (BIO-RAD, US). Positive control was without product, and negative control was without bacteria/fungi inoculum. MICs were determined as the lowest concentration that inhibited cell growth by more than 90%.

[2] = tested on: Escherichia coli (ATCC8739); assay: as above; format: cell-based; conditions: Gram-negative; lowest concentration inhibiting growth by more than 90%
Protocol: as §1

[3] = tested on: Fusarium solani (ATCC36031); assay: as above; format: cell-based; conditions: fungi; lowest concentration inhibiting growth by more than 90%
Protocol: as §1

[4] = tested on: Pseudomonas aeruginosa (ATCC9027); assay: as above; format: cell-based; conditions: Gram-negative; lowest concentration inhibiting growth by more than 90%
Protocol: as §1

[5] = tested on: Staphylococcus aureus (ATCC6538); assay: as above; format: cell-based; conditions: Gram-positive; lowest concentration inhibiting growth by more than 90%
Protocol: as §1

human red blood cells [6] = assay: Hemolysis assay; format: cell-based; conditions: for HC50 (the concentration which is 50% hemolytic): human erythrocytes, 1 h at 37° C.
Protocol: Fresh human blood (5 ml) was collected from a healthy donor. Erythrocytes were separated by centrifugation at 1000 rpm for 10 min, washed three times with Tris buffer (10 mM Tris, 150 mM NaCl, pH 7.2) and diluted to final concentration (5%, v/v). 50 μl of antimicrobial solution at different concentrations mixed with 50 μl erythrocytes stock were added to a 96-well microplate and incubated for 1 h at 37° C. with 150 rpm shaking. The microplate were centrifuged at 1,000 rpm for 10 min. 80 μl aliquots of the supernatant were then transferred to a new 96-well microplate and diluted with another 80 μl of Tris buffer. Hemolysis was measured as the absorbance at 540 nm with a microplate reader (BIO-RAD, US). Complete hemolysis was determined in Tris buffer plus 0.1% Triton x-100 as positive control, while Tris buffer was used as negative control. The percentage of hemolysis (H) was calculated using the following equation: Hemolysis=[(Op−Ob)/(Ot−Ob)]×100%, where Op is the density for a given antimicrobial agent concentration, Ob is the density for the buffer, and Ot is the density for the Triton x-100 positive control.

[7] = tested on: the three bacteria (P. aeruginosa, E. coli, S. aureus); assay: MIC, summarised over the bacterial pathogens; format: cell-based; conditions: for MIC against the bacterial pathogens: lower bound over the three bacteria
Protocol: as §1

[8] = tested on: Escherichia coli (ATCC8739); conditions: comparator agents (#3A-#6E), previously reported; cited from earlier work
human red blood cells [9] = conditions: cited from earlier work
[10] = tested on: all tested bacteria and fungi (P. aeruginosa, E. coli, S. aureus, C. albicans, F. solani); assay: MIC, summarised over all pathogens tested; format: cell-based; conditions: for MICs for all pathogens tested: range over Gram-negative, Gram-positive bacteria and fungi
Protocol: as §1

[11] = tested on: E. coli, P. aeruginosa, S. aureus, C. albicans, F. solani cells; assay: Morphology study of microorganisms (FESEM); format: cell-based; conditions: at MIC concentration, 15 min treatment, compared with intact controls
Protocol: After incubation the microbes were immediately fixed with glutaraldehyde (2.5%, 5 ml) solution for 4 hr. Following dehydration in a graded ethanol series (20%-100%) and drying under a nitrogen flow, the samples were coated with platinum and imaged with FESEM (JEOL JSM-6700F) for microbe morphology changes.

E. coli = assay: LIVE/DEAD bacterial viability assay; format: cell-based, Escherichia coli; conditions: at MIC concentration, 15 min at 37° C.
Protocol: LIVE/DEAD assay was carried out using CS-g-K16 with E. coli. […] After incubation the cells were collected by centrifugation and stained with BacLight bacterial viability kit L13152 (Invitrogen) for 30 min at room temperature. The cells were then imaged with fluorescence microscopy (Carl Zeiss, Germany).

E. coli membrane = assay: Membrane depolarization, DiSC3(5) dye leakage; format: cell-based, Escherichia coli; conditions: 100 μg ml^−1
Protocol: Bacteria were harvested at mid-log phase, washed three times with a buffer solution of 20 mM glucose and 5 mM HEPES (pH 7.4). The bacteria was resuspended in the washing buffer with additional 0.1 M KCl, then incubated with DiSC3(5) (20 nM) until it was incorporated into the cell membrane. The CS-g-K16 was added at a concentration of 100 μg ml^−1, and the fluorescence was monitored with a fluorescence spectrometer (PerkinElmer LS55, U.S.) at λex=620 nm and λem=670 nm. Finally, 0.2 nM Gramicidin D was added to obtain the full release of the dye.

[12] = tested on: SMCs and E. coli co-culture; assay: Co-culture of bacteria and mammalian cells; format: cell-based; conditions: 100 μg ml^−1, 6 h after inoculation of 1×10^5 E. coli
Protocol: SMCs were cultured in 96-well plates from inocula of 1×10^5 cells in each well and incubated at 37° C. for 24 h in a culture medium free of any antibiotics. 1×10^5 cells E. coli was seeded in the SMC culture wells. Then CS-g-K16 was added in the SMC and E. coli co-culture wells at a concentration of 100 μg ml^−1. Wells without CS-g-K16 were used as a control. The co-culture was imaged using an inverted optical microscope (Carl Zeiss, Germany).

Compound | MIC C. albicans [1] [µg/mL] | MIC E. coli [2] [µg/mL] | MIC F. solani [3] [µg/mL] | MIC P. aeruginosa [4] [µg/mL] | MIC S. aureus [5] [µg/mL] | further results
chitosan-graft-poly(lysine-ran-phenylalanine) [CS-g-K12.5F12.5] | 310 | 630 | 80 | 1250 | 1250 | HC50 (the concentration which is 50% hemolytic) (human red blood cells [6]): 7500 µg/mL; increase of MICs compared with P(K12.5F12.5) (#5B) ([7]; for the three bacteria): more than 5 times; MIC against the bacterial pathogens [7]: ≥ 630 µg/mL
CC[C@H](C)[C@H](NC(=O)CN)C(=O)NCC(=O)N[C@@H](C)C(=O)N[C@H](C(=O)N[C@@H](CC(C)C)C(=O)N[C@@H](CCCCN)C(=O)N[C@H](C(=O)N[C@@H](CC(C)C)C(=O)N[C@H](C(=O)N[C@H](C(=O)NCC(=O)N[C@@H](CC(C)C)C(=O)N1CCC[C@H]1C(=O)N[C@@H](C)C(=O)N[C@@H](CC(C)C)C(=O)N[C@H](C(=O)N[C@@H](CO)C(=O)N[C@@H](Cc1c[nH]c2ccccc12)C(=O)N[C@H](C(=O)N[C@@H](CCCCN)C(=O)N[C@@H](CCCNC(=N)N)C(=O)N[C@@H](CCCCN)C(=O)N[C@@H](CCCNC(=N)N)C(=O)N[C@@H](CCC(N)=O)C(=O)N[C@@H](CCC(N)=O)C(N)=O)[C@@H](C)CC)[C@@H](C)CC)[C@@H](C)O)[C@@H](C)O)C(C)C)C(C)C [Melittin] | – | – | – | – | – | MIC E. coli [8]: 13 µg/mL (≈ 4.57 µM); HC50 (the concentration which is 50% hemolytic) (human red blood cells [9]; comparator agents (#3A-#6E), previously reported): 2 µg/mL
chitosan-graft-polylysine [CS-g-K3] | 20 | 20 | 10 | 20 | 40 | –
chitosan-graft-polylysine [CS-g-K1] | 40 | 80 | 40 | 80 | 160 | –
chitosan-graft-polylysine [CS-g-K25] | 20 | 10 | 5 | 40 | 10 | –
chitosan-graft-polylysine [CS-g-K9] | 20 | 10 | 5 | 20 | 20 | MICs for all pathogens tested [10]: 5 to 20 µg/mL
chitosan-graft-polylysine [CS-g-K16] | 20 | 10 | 5 | 20 | 10 | HC50 compared with other state-of-the-art antimicrobial polymers (human red blood cells [6]): 3 to 5 orders of magnitude; hemolytic percentage (human red blood cells [6]): below 50%; MICs for all pathogens tested [10]: 5 to 20 µg/mL; MICs against Gram-negative and Gram-positive bacteria and fungi ([10]; range over all pathogens): 5-20 μml^−1; morphology of microbial cells (FESEM) [11]: exhibit obvious morphological changes; bacterial viability by LIVE/DEAD stain (SYTO 9 / propidium iodide) (E. coli): renders E. coli cell membrane permeable to propidium iodide; membrane potential sensitive dye DiSC3(5) leakage (E. coli membrane): immediate fluorescence increase; bacterial growth and SMCs growth in co-culture [12]: inhibits the bacterial growth but permits SMCs growth; also recorded: bacteria were inhibited and SMCs grew well
chitosan-graft-polylysine [CS-g-K3-HMW] | 160 | 80 | 40 | 310 | 160 | MICs relative to those of CS-g-K3 (#1B) ([10]; same grafting ratio of lysine, higher molecular weight chitosan, all five pathogens): ≥ 4 fold
chitosan-graft-poly(lysine-ran-phenylalanine) [CS-g-K8F8] | >2500 | >2500 | 160 | >2500 | 2500 | HC50 (the concentration which is 50% hemolytic) (human red blood cells [6]): 12500 µg/mL; MIC against the bacterial pathogens [7]: ≥ 2500 µg/mL
Magainin-2 | – | – | – | – | – | MIC E. coli [8]: 125 µg/mL; HC50 (the concentration which is 50% hemolytic) (human red blood cells [9]): >250 µg/mL
